# Results as given in BindingDB's records for PubMed 10779381 (University of Ferrara, 2000).
# “And” between values parts separate entries of the source, which are not always exact repeats. Equal values may be shown once.
# Key:
# [1] = biological target: T1, Adenosine receptor A3 (Homo sapiens, UniProt P0DMS8)
# T1 sequence (P0DMS8 whole entry): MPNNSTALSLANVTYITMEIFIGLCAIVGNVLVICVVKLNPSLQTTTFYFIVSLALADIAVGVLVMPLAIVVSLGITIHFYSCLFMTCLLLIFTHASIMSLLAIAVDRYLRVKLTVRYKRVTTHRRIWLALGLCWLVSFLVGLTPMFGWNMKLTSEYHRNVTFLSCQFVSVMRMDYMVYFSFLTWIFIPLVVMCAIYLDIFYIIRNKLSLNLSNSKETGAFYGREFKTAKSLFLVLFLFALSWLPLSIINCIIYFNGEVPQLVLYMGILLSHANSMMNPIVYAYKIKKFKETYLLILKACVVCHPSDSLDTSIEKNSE
# [2] = biological target: T2, Adenosine receptor A1 (Rattus norvegicus, UniProt P25099)
# T2 sequence (P25099 whole entry): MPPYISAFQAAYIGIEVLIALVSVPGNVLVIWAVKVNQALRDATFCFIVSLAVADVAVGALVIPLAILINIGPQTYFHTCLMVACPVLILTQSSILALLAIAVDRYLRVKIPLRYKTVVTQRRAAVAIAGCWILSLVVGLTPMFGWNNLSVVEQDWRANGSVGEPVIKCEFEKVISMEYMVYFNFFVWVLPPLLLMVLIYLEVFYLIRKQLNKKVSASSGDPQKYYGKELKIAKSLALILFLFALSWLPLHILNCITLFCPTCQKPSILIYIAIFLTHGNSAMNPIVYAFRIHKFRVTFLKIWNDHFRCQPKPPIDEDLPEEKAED
Ki [1],Ki [2] [nM],SMILES
> 10000 nM,–,Nc1nc2c(cnn2CCc2ccccc2)c2nc(-c3ccco3)nn12
0.48 nM and 0.98 nM,–,"CCCn1cc2c(nc(NC(=O)Nc3cccc(Cl)c3)n3nc(-c4ccco4)nc23)n1 [1-(3-chlorophenyl)-3-[2-(furan-2-yl)-8-propyl-8H-pyrazolo[4,3-e][1,2,4]triazolo[1,5-c]pyrimidin-5-yl]urea]"
–,> 10000,CCCn1cc2c(nc(NC(=O)Nc3ccc(OC)cc3)n3nc(-c4ccco4)nc23)n1 [J1.251.181G]

SMILES,Ki [1],Ki [2] [nM]
Nc1nc2ccc(Cl)cc2c2nc(-c3ccco3)nn12,90 nM and 65 nM,–
